Laboratory results: patent publication US20150148377A1, “Quinoline Derivatives” (NOVARTIS AG, priority 2011, published 2015)

Key:
PI3K alpha = target: T1, PI3K alpha (Homo sapiens, UniProt P42336); assay: Enzymatic PI3K alpha isoform inhibition (lipid kinase activity, Kinase-Glo); format: biochemical; conditions: enzymatic assay
T1 construct: His tag (C); made in house; host or cells: baculovirus; Tn5 (Trichoplusia ni) or TiniPro insect cells
Description: The kinase reaction is performed in a final volume of 50 μl per well of a half area COSTAR, 96 well plate. The final concentrations of ATP and phosphatidyl inositol in the assay are 5 μM and 6 μg/mL, respectively. The reaction is started by the addition of PI3 kinase, e.g. PI3 kinase δ.
(§1) In a more preferred assay, the kinase reaction is performed in a final volume of 10 μl per well of a low volume non-binding CORNING, 384 well black plate (Cat. No. #3676). The final concentrations of ATP and phosphatidyl inositol (PI) in the assay are 1 μM and 10 μg/mL, respectively. The reaction is started by the addition of ATP.
(§2) The components of the assay are added per well as follows:
(§3) 50 nl test compounds in 90% DMSO per well, in columns 1-20, 8 concentrations (1/3 and 1/3.33 serial dilution step) in single. • Low control: 50 nl of 90% DMSO in half the wells of columns 23-24 (0.45% in final). • High control: 50 nl of reference compound (e.g. compound of Example 7 in WO 2006/122806) in the other half of columns 23-24 (2.5 μM in final). • Standard: 50 nl of reference compound as just mentioned diluted as the test compounds in columns 21-22. • 20 mL ‘buffer’ are prepared per assay: • 200 μl of 1M TRIS HCl pH7.5 (10 mM in final) • 60 μl of 1M MgCl2 (3 mM in final) • 500 μl of 2M NaCl (50 mM in final) • 100 μl of 10% CHAPS (0.05% in final) • 200 μl of 100 mM DTT (1 mM in final) • 18.94 mL of nanopure water • 10 mL ‘PI’ are prepared per assay: • 200 μl of 1 mg/mL 1-alpha-Phosphatidylinositol (Liver Bovine, Avanti Polar Lipids Cat. No. 840042C MW=909.12) prepared in 3% OctylGlucoside (10 μg/mL in final) • 9.8 mL of ‘buffer’ • 10 mL ‘ATP’ are prepared per assay: • 6.7 μl of 3 mM stock of ATP giving a final concentration of 1 μM per well • 10 mL of ‘buffer’ • 2.5 mL of each PI3K construct are prepared per assay in ‘PI’ with the following final concentration: • 10 nM PI3K alfa EMV B1075 • 25 nM beta EMV BV949 • 10 nM delta EMV BV1060 • 150 nM gamma EMV BV950 • 5 μl of ‘PI/PI3K’ are added per well. • 5 μl ‘ATP’ are added per well to start the reaction. • The plates are then incubated at room temperature for 60 minutes (alfa, beta, delta) or 120 minutes (gamma). • The reaction is terminated by the addition of 10 μl Kinase-Glo (Promega Cat. No. #6714). • The assay plates are read after 10 minutes in Synergy 2 reader (BioTek, Vermont USA) with an integration time of 100 milliseconds and sensitivity set to 191. • Output: The High control is around 60'000 counts and the Low control is 30'000 or lower • This luminescence assay gives a useful Z′ ratio between 0.4 and 0.7
(§4) IC50 is determined by a four parameter curve fitting routine that comes along with “excel fit”. A four parameter logistic equation is used to calculate IC50 values (IDBS XLfit) of the percentage inhibition of each compound at 8 concentrations (usually 10, 3.0, 1.0, 0.3, 0.1, 0.030, 0.010 and 0.003 μM). Alternatively, IC50 values are calculated using idbsXLfit model 204, which is a 4 parameter logistic model.
(§5) Yet alternatively, for an ATP depletion assay, compounds of the formula I to be tested are dissolved in DMSO and directly distributed into a white 384-well plate at 0.5 μl per well. To start the reaction, 10 μl of 10 nM PI3 kinase and 5 μg/mL 1-alpha-phosphatidylinositol (PI) are added into each well followed by 10 μl of 2 μM ATP. The reaction is performed until approx 50% of the ATP is depleted, and then stopped by the addition of 20 μl of Kinase-Glo solution (Promega Corp., Madison, Wis., USA). The stopped reaction is incubated for 5 minutes and the remaining ATP is then detected via luminescence. IC50 values are then determined.

PI3K delta = target: T2, PI3K delta (Homo sapiens, UniProt O00329); assay: Enzymatic PI3K delta isoform inhibition (lipid kinase activity, Kinase-Glo); format: biochemical; conditions: enzymatic assay
T2 construct: for the full-length p110-d subunit are generated and fused by overlapping PCR; His tag (C); made in house; host or cells: baculovirus; Tn5 (Trichoplusia ni) or TiniPro insect cells
T2 sequence (O00329 with tags, fused parts or gaps limits assumed): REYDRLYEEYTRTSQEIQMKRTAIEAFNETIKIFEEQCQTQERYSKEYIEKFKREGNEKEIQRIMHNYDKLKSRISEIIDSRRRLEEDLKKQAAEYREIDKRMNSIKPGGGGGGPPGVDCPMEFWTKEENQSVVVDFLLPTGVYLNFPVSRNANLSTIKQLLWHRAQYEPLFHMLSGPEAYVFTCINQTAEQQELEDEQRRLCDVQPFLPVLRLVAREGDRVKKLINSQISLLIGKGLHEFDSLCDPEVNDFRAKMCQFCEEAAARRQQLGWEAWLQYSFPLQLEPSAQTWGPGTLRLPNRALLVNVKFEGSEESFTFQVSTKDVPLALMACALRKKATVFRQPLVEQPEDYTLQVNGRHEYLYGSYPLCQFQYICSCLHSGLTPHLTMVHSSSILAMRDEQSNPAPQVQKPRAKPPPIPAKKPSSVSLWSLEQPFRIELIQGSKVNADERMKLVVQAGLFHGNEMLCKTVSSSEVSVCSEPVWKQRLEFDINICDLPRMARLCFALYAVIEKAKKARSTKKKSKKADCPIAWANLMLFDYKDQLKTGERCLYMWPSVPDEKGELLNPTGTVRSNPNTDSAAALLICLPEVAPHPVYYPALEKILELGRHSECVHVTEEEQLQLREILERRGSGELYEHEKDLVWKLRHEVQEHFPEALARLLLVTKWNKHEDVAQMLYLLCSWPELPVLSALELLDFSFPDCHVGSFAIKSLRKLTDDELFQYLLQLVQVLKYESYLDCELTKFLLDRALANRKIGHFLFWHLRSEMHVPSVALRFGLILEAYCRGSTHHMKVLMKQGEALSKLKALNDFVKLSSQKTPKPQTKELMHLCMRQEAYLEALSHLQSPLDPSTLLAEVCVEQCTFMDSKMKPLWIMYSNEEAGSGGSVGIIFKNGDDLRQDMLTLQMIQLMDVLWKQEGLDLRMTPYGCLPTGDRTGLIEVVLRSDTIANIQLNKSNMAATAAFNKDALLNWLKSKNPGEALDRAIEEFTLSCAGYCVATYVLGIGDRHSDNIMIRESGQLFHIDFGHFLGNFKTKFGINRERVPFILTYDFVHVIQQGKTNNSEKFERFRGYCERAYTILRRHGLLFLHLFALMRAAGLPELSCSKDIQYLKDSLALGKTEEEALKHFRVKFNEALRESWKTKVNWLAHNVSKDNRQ
Description: as §1, §2, §3, §4, §5

T1 sequence (P42336 with tags, fused parts or gaps limits assumed): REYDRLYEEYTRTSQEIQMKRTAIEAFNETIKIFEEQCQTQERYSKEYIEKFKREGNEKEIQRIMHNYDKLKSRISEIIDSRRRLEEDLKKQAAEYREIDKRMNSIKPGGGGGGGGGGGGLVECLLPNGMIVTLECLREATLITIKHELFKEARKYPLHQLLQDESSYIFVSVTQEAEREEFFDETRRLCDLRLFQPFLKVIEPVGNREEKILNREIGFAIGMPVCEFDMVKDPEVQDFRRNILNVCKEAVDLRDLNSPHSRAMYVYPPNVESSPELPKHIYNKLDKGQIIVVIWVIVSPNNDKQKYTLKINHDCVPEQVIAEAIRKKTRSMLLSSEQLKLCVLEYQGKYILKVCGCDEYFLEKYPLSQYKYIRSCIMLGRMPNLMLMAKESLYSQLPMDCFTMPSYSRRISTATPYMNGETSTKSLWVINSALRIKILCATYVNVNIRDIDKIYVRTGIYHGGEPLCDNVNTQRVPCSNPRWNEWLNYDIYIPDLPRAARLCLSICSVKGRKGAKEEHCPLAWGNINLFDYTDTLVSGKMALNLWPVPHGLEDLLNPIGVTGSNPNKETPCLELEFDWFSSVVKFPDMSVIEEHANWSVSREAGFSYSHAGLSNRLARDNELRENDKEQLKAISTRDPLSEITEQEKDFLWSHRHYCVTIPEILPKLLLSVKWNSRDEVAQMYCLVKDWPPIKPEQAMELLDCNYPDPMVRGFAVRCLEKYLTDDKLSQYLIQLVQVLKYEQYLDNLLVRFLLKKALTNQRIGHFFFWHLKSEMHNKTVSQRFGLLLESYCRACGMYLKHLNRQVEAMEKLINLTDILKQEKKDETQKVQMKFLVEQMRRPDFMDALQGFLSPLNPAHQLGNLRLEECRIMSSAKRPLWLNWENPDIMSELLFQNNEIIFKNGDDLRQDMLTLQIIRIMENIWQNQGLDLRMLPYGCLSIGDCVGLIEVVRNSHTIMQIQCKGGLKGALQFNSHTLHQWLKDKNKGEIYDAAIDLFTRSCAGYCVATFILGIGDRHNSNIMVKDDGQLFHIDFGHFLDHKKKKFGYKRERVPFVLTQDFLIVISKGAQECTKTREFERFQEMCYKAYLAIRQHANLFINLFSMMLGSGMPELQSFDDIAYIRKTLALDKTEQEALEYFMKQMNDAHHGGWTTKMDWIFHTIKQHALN

SMILES | IC50 (PI3K alpha) [nM] | IC50 (PI3K delta) [nM]
CCC(=O)N1CC[C@H](Oc2ccc3nccc(-c4cnc(OC)c(C)c4)c3c2)C1 [Example A2, 1-{(S)-3-[4-(6-Methoxy-5-methyl-pyridin-3-yl)-quinolin-6-yloxy]-pyrrolidin-1-yl}-propan-1-one] | 264 | < 3
COc1ncc(-c2ccnc3ccc(O[C@H]4CCN(C(=O)C5CCOCC5)C4)cc23)cc1C#N [Example A3, 2-Methoxy-5-{6-[(S)-1-(tetrahydro-pyran-4-carbonyl)-pyrrolidin-3-yloxy]-quinolin-4-yl}-nicotinonitrile] | 426 | 3
COc1ncc(-c2ccnc3ccc(O[C@H]4CCN(C(=O)C5CCS(=O)(=O)CC5)C4)cc23)cc1F [Example A4, (1,1-Dioxo-hexahydro-1lambda*6*-thiopyran-4-yl)-{(S)-3-[4-(5-fluoro-6-methoxy-pyridin-3-yl)-quinolin-6-yloxy]-pyrrolidin-1-yl}-methanone] | 128 | 3
COc1ncc(-c2ccnc3ccc(O[C@H]4CCN(C(=O)c5ccc(=O)[nH]c5)C4)cc23)cc1C [Example A5, 5-{(S)-3-[4-(6-Methoxy-5-methyl-pyridin-3-yl)-quinolin-6-yloxy]-pyrrolidine-1-carbonyl}-1H-pyridin-2-one] | 231 | < 3
COc1ncc(-c2ccnc3ccc(O[C@H]4CCN(C(=O)C5CCOCC5)C4)cc23)cc1C(F)(F)F [Example A7, {(S)-3-[4-(6-Methoxy-5-trifluoromethyl-pyridin-3-yl)-quinolin-6-yloxy]-pyrrolidin-1-yl}-(tetrahydro-pyran-4-yl)-methanone] | 96 | 4
COc1ncc(-c2ccnc3ccc(O[C@H]4CCN(C(=O)C5CCS(=O)(=O)CC5)C4)cc23)cc1C(F)(F)F [Example A8, (1,1-Dioxo-hexahydro-1lambda*6*-thiopyran-4-yl)-{(S)-3-[4-(6-methoxy-5-trifluoromethyl-pyridin-3-yl)-quinolin-6-yloxy]-pyrrolidin-1-yl}-methanone] | 131 | 4
COc1ncc(-c2ccnc3ccc(O[C@H]4CCN(C(=O)C5CCS(=O)(=O)CC5)C4)cc23)cc1CF [Example A9, (1,1-Dioxo-hexahydro-1lambda*6*-thiopyran-4-yl)-{(S)-3-[4-(5-fluoromethyl-6-methoxy-pyridin-3-yl)-quinolin-6-yloxy]-pyrrolidin-1-yl}-methanone] | 172 | 4
COc1ncc(-c2ccnc3ccc(O[C@H]4CCN(C(=O)[C@@H]5CCN(C(C)=O)C5)C4)cc23)cc1C(F)(F)F [Example A11, 1-((R)-3-{(S)-3-[4-(6-Methoxy-5-trifluoromethyl-pyridin-3-yl)-quinolin-6-yloxy]-pyrrolidine-1-carbonyl}-pyrrolidin-1-yl)-ethanone] | 257 | 5
COc1ncc(-c2ccnc3ccc(O[C@H]4CCN(C(=O)C5CCOC5)C4)cc23)cc1C#N (stereo partly drawn) [Example A12, 2-Methoxy-5-{6-[(S)-1-((R,S)-tetrahydro-furan-3-carbonyl)-pyrrolidin-3-yloxy]-quinolin-4-yl}-nicotinonitrile] | 305 | 5
COc1ncc(-c2ccnc3ccc(O[C@H]4CCN(C(=O)C5CCOCC5)C4)cc23)cc1F [Example A13, {(S)-3-[4-(5-Fluoro-6-methoxy-pyridin-3-yl)-quinolin-6-yloxy]-pyrrolidin-1-yl}-(tetrahydro-pyran-4-yl) methanone] | 802 | 5
COc1ncc(-c2ccnc3ccc(O[C@H]4CCN(C(=O)C5CCOCC5)C4)cc23)cc1C [Example A14, {(S)-3-[4-(6-Methoxy-5-methyl-pyridin-3-yl)-quinolin-6-yloxy]-pyrrolidin-1-yl}-(tetrahydro-pyran-4-yl)methanone] | 253 | 6
COc1ncc(-c2ccnc3ccc(O[C@H]4CCN(C(=O)C5CCN(C(C)=O)CC5)C4)cc23)cc1C(F)(F)F [Example A16, 1-(4-{(S)-3-[4-(6-Methoxy-5-trifluoromethyl-pyridin-3-yl)-quinolin-6-yloxy]-pyrrolidine-1-carbonyl}-piperidin-1-yl) ethanone] | 207 | 7
CS(=O)(=O)c1ncc(-c2ccnc3ccc(O[C@H]4CCN(C(=O)C5CCOCC5)C4)cc23)cc1C(F)F [Example A17, {(S)-3-[4-(5-Difluoromethyl-6-methanesulfonyl-pyridin-3-yl)-quinolin-6-yloxy]-pyrrolidin-1-yl}-(tetrahydro-pyran-4-yl)-methanone] | 341 | 7
CCC(=O)N1CC[C@H](Oc2ccc3nccc(-c4cnc(OC)c(C#N)c4)c3c2)C1 [Example A18, 2-Methoxy-5-[6-((S)-1-propionyl-pyrrolidin-3-yloxy)-quinolin-4-yl]-nicotinonitrile] | 613 | 7
COc1ncc(-c2ccnc3ccc(O[C@H]4CCN(C(=O)c5ccc(=O)[nH]c5)C4)cc23)cc1C(F)(F)F [Example A19, 5-{(S)-3-[4-(6-Methoxy-5-trifluoromethyl-pyridin-3-yl)-quinolin-6-yloxy]-pyrrolidine-1-carbonyl}-1H-pyridin-2-one] | 85 | 7
CS(=O)(=O)c1ncc(-c2ccnc3ccc(O[C@H]4CCN(C(=O)C5CCOCC5)C4)cc23)cc1CF [Example A20, {(S)-3-[4-(5-Fluoromethyl-6-methanesulfonyl-pyridin-3-yl)-quinolin-6-yloxy]-pyrrolidin-1-yl}-(tetrahydropyran-4-yl)-methanone] | 543 | 7
CC(=O)N1CC[C@@H](C(=O)N2CC[C@H](Oc3ccc4nccc(-c5cnc(S(C)(=O)=O)c(C)c5)c4c3)C2)C1 [Example A21, 1-((R)-3-{(S)-3-[4-(6-Methanesulfonyl-5-methyl-pyridin-3-yl)-quinolin-6-yloxy]-pyrrolidine-1-carbonyl}-pyrrolidin-1-yl)-ethanone] | 822 | 7
COc1ncc(-c2ccnc3ccc(O[C@H]4CCN(C(=O)C5CCS(=O)(=O)CC5)C4)cc23)cc1C#N [Example A22, 5-{6-[(S)-1-(1,1-Dioxo-hexahydro-1lambda*6*-thiopyran-4-carbonyl)-pyrrolidin-3-yloxy]-quinolin-4-yl}-2-methoxy-nicotinonitrile] | 364 | 8
Cc1cc(-c2ccnc3ccc(O[C@H]4CCN(C(=O)C5CCS(=O)(=O)CC5)C4)cc23)cnc1S(C)(=O)=O [Example A23, (1,1-Dioxo-hexahydro-1lambda*6*-thiopyran-4-yl)-{(S)-3-[4-(6-methanesulfonyl-5-methyl-pyridin-3-yl)-quinolin-6-yloxy]-pyrrolidin-1-yl}-methanone] | 1140 | 10
COc1ncc(-c2ccnc3ccc(O[C@H]4CCN(C(=O)c5cn(C)cn5)C4)cc23)cc1C(F)(F)F [Example A26, {(S)-3-[4-(6-Methoxy-5-trifluoromethyl-pyridin-3-yl)-quinolin-6-yloxy]-pyrrolidin-1-yl}-(1-methyl-1H-imidazol-4-yl)-methanone] | 121 | 13
